From patent US7012089B2, “[1,4]Diazocino[7,8,1-hi]indole derivatives as antipsychotic and antiobesity agents” (Wyeth, priority 2002, dated 2006)
Where two headings read alike, the source gives them in different places.

Experiments:
[1] = molecular target: T1, human 5-hydroxytryptamine-2C (h-5-HT2C) receptor (Homo sapiens, UniProt P28335); experiment: [125I]DOI binding to membranes of CHO cells expressing the h-5-HT2C receptor
T1 sequence (P28335 33-458): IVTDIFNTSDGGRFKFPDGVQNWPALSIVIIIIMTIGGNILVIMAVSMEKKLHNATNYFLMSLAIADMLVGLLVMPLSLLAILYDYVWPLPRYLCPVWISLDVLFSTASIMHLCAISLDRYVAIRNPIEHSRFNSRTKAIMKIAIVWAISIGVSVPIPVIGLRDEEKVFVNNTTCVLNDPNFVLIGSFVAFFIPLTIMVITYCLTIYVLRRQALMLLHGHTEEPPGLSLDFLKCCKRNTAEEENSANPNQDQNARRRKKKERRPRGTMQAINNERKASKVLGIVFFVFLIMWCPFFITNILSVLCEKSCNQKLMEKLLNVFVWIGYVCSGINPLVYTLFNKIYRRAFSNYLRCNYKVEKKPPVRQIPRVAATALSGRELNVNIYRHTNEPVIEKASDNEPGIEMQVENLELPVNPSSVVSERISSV

human 5-HT2C receptor = molecular target: T2, human 5-HT2C receptor (Homo sapiens, UniProt P28335); experiment: 5-HT2C receptor-stimulated calcium mobilization (FLIPR) in CHO cells; assay type: cell-based; details: for Emax: CHO, read-out: 5-HT2C Function Emax (%)
T2 sequence (P28335 33-458): T1 sequence (P28335 33-458)

[2] = 5-HT2c Affinity KI (nM), displacement of [125I]DOI, CHO cell membranes
[3] = calcium mobilization, CHO cells stably expressing human 5-HT2C, read-out: 5-HT2C Function EC50

Row | Structure (SMILES) | Ki [1, 2] [nM] | Emax (human 5-HT2C receptor) [%] | EC50 (human 5-HT2C receptor) [nM] | other results
1 | Clc1ccc2c3c1CCNCCN3C1CCCCCC21 (centres unmarked) [Example 22, 6-Chloro-2,3,4,5,9,10,11,12,13,13a-decahydro-1H,8bH-cyclohepta[b][1,4]diazocino[7,8,1-hi]indole] | 50 | 60 |  | EC50 (human 5-HT2C receptor; [3]): 326 nM
2 | Clc1ccc2c3c(n4c2c1CCNCC4)CCC3 [Example 17, 6-Chloro-2,3,4,5,10,11-hexahydro-1H,9H-cyclopenta[b][1,4]diazocino[7,8,1-hi]indole] |  |  |  | Ki ([1]; read-out: 5-HT2c Affinity KI): 156 nM
3 | Fc1ccc2c3c1[C@H]1CCCC[C@H]1N3CCNCC2 (single isomer, unassigned) [Example 32, (+)-(8bR*,12aR*)-8-Fluoro-2,3,4,5,8b,9,10,11,12,12a-decahydro-1H-[1,4]diazocino[7,8,1-jk]carbazole] | 2 |  |  | 
4 | CCN1CCc2c(Cl)ccc3c2N(CC1)C1CCCCC31 (centres unmarked) [Example 23, 6-Chloro-3-ethyl-2,3,4,5,8b,9,10,11,12,12a-decahydro-1H-[1,4]diazocino[7,8,1-jk]carbazole] |  |  |  | Ki ([1]; read-out: 5-HT2c Affinity KI): 116 nM
5 | c1cc2c3c(c1)[C@H]1CCC[C@H]1N3CCNCC2 (single isomer, unassigned) [Example 45, (+)-(8bR*,11aR*)-2,3,4,5,9,10,11,11a-Octahydro-1H,8bH-cyclopenta[b][1,4]diazocino[7,8,1-hi]indole] | 362 |  |  | 
6 | CN1CCc2c(Cl)ccc3c2N(CC1)C1CCCC31 (centres unmarked) [Example 15, 6-Chloro-3-Methyl-2,3,4,5,9,10,11,11a-octahydro-1H,8bH-cyclopenta[b][1,4]diazocino[7,8,1-hi]indole] |  |  |  | Ki ([1]; read-out: 5-HT2c Affinity KI): 131 nM
7 | c1cc2c3c(c1)c1c(n3CCNCC2)CCCC1 [Example 6, 2,3,4,5,9,10,11,12-Octahydro-1H-[1,4]diazocino[7,8,1-jk]carbazole] | 4 | 80 | 6 | 
8 | c1cc2c3c(c1)c1c(n3CCNCC2)CCC1 [Example 2, 2,3,4,5,10,11-Hexahydro-1H,9H-cyclopenta[b][1,4]diazocino[7,8,1-hi]indole] | 38 | 80 | 20 | 
9 | Clc1ccc2c3c(n4c2c1CCNCC4)CCCC3 [Example 18, 6-Chloro-2,3,4,5,9,10,11,12-octahydro-1H-[1,4]diazocino[7,8,1-jk]carbazole] | 83 |  |  | 
10 | Fc1ccc2c3c1C1CCCC1N3CCNCC2 (centres unmarked) [Example 30, 8-Fluoro-2,3,4,5,9,10,11,11a-octahydro-1H,8bH-cyclopenta[b][1,4]diazocino[7,8,1-hi]indole] | 16 | 90 | 36 | 
11 | Clc1ccc2c3c1C1CCCCC1N3CCNCC2 (centres unmarked) [Example 41, 8-Chloro-2,3,4,5,8b,9,10,11,12,12a-decahydro-1H-[1,4]diazocino[7,8,1-jk]carbazole] | 7.5 | 90 | 91 | 
12 | CN1CCc2ccc(Cl)c3c2N(CC1)C1CCCCC31 (centres unmarked) [Example 37, 8-Chloro-3-methyl-2,3,4,5,8b,9,10,11,12,12a-decahydro-1H-[1,4]diazocino[7,8,1-jk]carbazole] | 11.6 | 70 |  | EC50 (human 5-HT2C receptor; [3]): 655 nM
13 | CN1CCc2cccc3c2N(CC1)C1CCCC31 (centres unmarked) [Example 3, 3-Methyl-2,3,4,5,9,10,11,11a-octahydro-1H,8bH-cyclopenta[b][1,4]diazocino[7,8,1-hi]indole] | 41 | 50 | 37 | 
14 | c1cc2c3c(c1)[C@H]1CCCC[C@H]1N3CCNCC2 (single isomer, unassigned) [Example 48, (−)-(8bR*,12aR*)-2,3,4,5,8b,9,10,11,12,12a-Decahydro-1H[1,4]diazocino[7,8,1-jk]carbazole] | 17 | 70 | 42 | 
15 | CN1CCc2ccc(Cl)c3c4c(n(c23)CC1)CCC4 [Example 34, 8-Chloro-3-methyl-2,3,4,5,10,11-hexahydro-1H,9H-cyclopenta[b][1,4]diazocino[7,8,1-hi]indole] | 15 | 40 | 81 | 
16 | c1cc2c3c(c1)[C@H]1CCC[C@H]1N3CCNCC2 (single isomer, unassigned) [Example 46, (−)-(8bR*,11aR*)-2,3,4,5,9,10,11,11a-Octahydro-1H,8bH-cyclopenta[b][1,4]diazocino[7,8,1-hi]indole] | 19 | 70 | 38 | 
17 | Clc1ccc2c3c(n4c2c1CCNCC4)CCCCC3 [Example 19, 6-Chloro-2,3,4,5,10,11,12,13-octahydro-1H,9H-cyclohepta[b][1,4]diazocino[7,8,1-hi]indole] |  |  |  | Ki ([1]; read-out: 5-HT2c Affinity KI): 4970 nM
18 | c1cc2c3c(c1)c1c(n3CCNCC2)CCCCC1 [Example 10, 2,3,4,5,10,11,12,13-Octahydro-1H,9H-cyclohepta[b]1,4]diazocino[7,8,1-hi]indole] | 38 | 90 |  | EC50 (human 5-HT2C receptor; [3]): 156 nM

Row | Structure (SMILES) | Ki [1, 2] [nM] | Emax (human 5-HT2C receptor) [%] | EC50 (human 5-HT2C receptor) [nM] | other results
19 | CN1CCc2ccc(Cl)c3c2N(CC1)C1CCCC31 (centres unmarked) [Example 36, 8-Chloro-3-methyl-2,3,4,5,9,10,11,11a-octahydro-1H,8bH-cyclopenta[b][1,4]diazocino[7,8,1-hi]indole] | 12 | 40 |  | EC50 (human 5-HT2C receptor; [3]): 467 nM
20 | CN1CCc2ccc(F)c3c4c(n(c23)CC1)CCC4 [Example 24, 8-Fluoro-3-methyl-2,3,4,5,10,11-hexahydro-1H,9H-cyclopenta[b][1,4]diazocino[7,8,1-hi]indole] | 93 |  |  | 
21 | CN1CCc2ccc(F)c3c4c(n(c23)CC1)CCCC4 [Example 25, 8-Fluoro-3-methyl-2,3,4,5,9,10,11,12-octahydro-1H-[1,4]diazocino[7,8,1-jk]carbazole] | 68 |  |  | 
22 | COc1cc(CC(C)N)c(OC)cc1I (centres unmarked) [[^125I] DOI, reference compound] |  |  |  | Kd ([1]; saturation binding with increasing concentrations of [125I]DOI, read-out: dissociation constant, KD): 0.4 nM
23 | c1cc2c3c(c1)[C@H]1CCCC[C@H]1N3CCNCC2 (single isomer, unassigned) [Example 47, (+)-(8bR*,12aR*)-2,3,4,5,8b,9,10,11,12,12a-Decahydro-1H-[1,4]diazocino[7,8,1-jk]carbazole] | 135 |  |  | 
24 | Fc1ccc2c3c1c1c(n3CCNCC2)CCC1 [Example 28, 8-Fluoro-2,3,4,5,10,11-hexahydro-1H,9H-cyclopenta[b][1,4]diazocino[7,8,1-hi]indole] | 12 | 80 | 36 | 
25 | Fc1ccc2c3c1c1c(n3CCNCC2)CCCC1 [Example 29, 8-Fluoro-2,3,4,5,9,10,11,12-octahydro-1H-[1,4]diazocino[7,8,1-jk]carbazole] | 1 | 90 | 8 | 
26 | CN1CCc2ccc(Cl)c3c4c(n(c23)CC1)CCCC4 [Example 35, 8-Chloro-3-methyl-2,3,4,5,9,10,11,12-octahydro-1H-[1,4]diazocino[7,8,1-jk]carbazole] | 11 | 50 |  | EC50 (human 5-HT2C receptor; [3]): 287 nM
27 | CN1CCc2cccc3c2N(CC1)C1CCCCC31 (centres unmarked) [Example 7, 3-Methyl-2,3,4,5,8b,9,10,11,12,12a-decahydro-1H-[1,4]diazocino[7,8,1-jk]carbazole] | 24 | 60 | 74 | 
28 | Fc1ccc2c3c1[C@H]1CCCC[C@H]1N3CCNCC2 (single isomer, unassigned) [Example 33, (−)-(8bR*,12aR*)-8-Fluoro-2,3,4,5,8b,9,10,11,12,12a-decahydro-1H-[1,4]diazocino[7,8,1-jk]carbazole] | 1.4 |  |  | 
29 | Clc1ccc2c3c1[C@H]1CCCC[C@H]1N3CCNCC2 (single isomer, unassigned) [Example 42, (+)-(8bR*,12aR*)-8-Chloro-2,3,4,5,8b,9,10,11,12,12a-decahydro-1H-[1,4]diazocino[7,8,1-jk]carbazole] | 5.1 |  |  | 
30 | Clc1ccc2c3c1CCNCCN3C1CCCC21 (centres unmarked) [Example 20, 6-Chloro-2,3,4,5,9,10,11,11a-octahydro-1H,8bH-cyclopenta[b][1,4]diazocino[7,8,1-hi]indole] |  |  |  | Ki ([1]; read-out: 5-HT2c Affinity KI): 111 nM
31 | Clc1ccc2c3c1[C@H]1CCCC[C@H]1N3CCNCC2 (single isomer, unassigned) [Example 43, (−)-(8bR*,12aR*)-8-Chloro-2,3,4,5,8b,9,10,11,12,12a-decahydro-1H-[1,4]diazocino[7,8,1-jk]carbazole] | 7 |  |  | 
32 | CN1CCc2cccc3c2N(CC1)C1CCSCC31 (centres unmarked) [Example 44, 3-Methyl-2,3,4,5,9,10,11,12-octahydro-1H,9H-[1,4]diazocino[7,8,1-hi]thiopyrano[4,3-b]indole] |  |  |  | Ki ([1]; read-out: 5-HT2c Affinity KI): 1720 nM
33 | CN1CCc2ccc(F)c3c2N(CC1)C1CCCC31 (centres unmarked) [Example 26, 8-Fluoro-3-methyl-2,3,4,5,9,10,11,11a-octahydro-1H,8bH-cyclopenta[b][1,4]diazocino[7,8,1-hi]indole] |  |  |  | Ki ([1]; read-out: 5-HT2c Affinity KI): 176 nM
34 | CN1CCc2c(Cl)ccc3c2N(CC1)C1CCCCCC31 (centres unmarked) [Example 16, 6-Chloro-3-methyl-2,3,4,5,9,10,11,12,13,13a-decahydro-1H,8bH-cyclohepta[b][1,4]diazocino[7,8,1-hi]indole] | 84 |  |  | 
35 | CSc1ccc2c(c1)C(N1CCN(C)CC1)Cc1ccccc1S2 (centres unmarked) [Methiothepin, reference compound] |  |  |  | Ki ([1]; reference compounds, displacement of [125I]DOI, CHO cell membranes, read-out: Ki (95% confidence interval)): 4.6 nM
36 | CCN1CCc2c(Cl)ccc3c2N(CC1)C1CCCC31 (centres unmarked) [Example 21, 6-Chloro-3-ethyl-2,3,4,5,9,10,11,11a-octahydro-1H,8bH-cyclopenta[b][1,4]diazocino[7,8,1-hi]indole] |  |  |  | Ki ([1]; read-out: 5-HT2c Affinity KI): 137 nM
